According to patent US10975119B2, “Selective cysteine protease inhibitors and uses thereof” (Genesis Technologies Limited, priority 2011, dated 2021):
“Also recorded” adds a separate entry of the source. Like-named read-outs stand apart in the source and are kept apart here.

Key:
Type in all cases: biochemical
Caspase-4 = biological target: T1, Caspase-4 (Homo sapiens, UniProt P49662); experiment: Caspase-4 inhibitor screening assay (BioVision kit, LEVD-AFC); conditions: for inhibition at 10 µM: read-out: % Inhibition at 10 uM Casp4; for inhibition at 100 µM: read-out: % Inhibition at 100 uM Casp4
T1 construct: mixing the compounds with the respective active caspases; purchased BioVision K154-100
T1 sequence (P49662 81-270 limits assumed): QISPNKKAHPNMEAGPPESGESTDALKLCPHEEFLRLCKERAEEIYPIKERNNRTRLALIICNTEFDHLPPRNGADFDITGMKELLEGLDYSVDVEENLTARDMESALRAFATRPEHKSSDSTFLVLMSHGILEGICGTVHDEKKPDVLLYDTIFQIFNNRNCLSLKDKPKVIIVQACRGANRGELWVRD
T1 sequence (P49662 290-377 limits assumed): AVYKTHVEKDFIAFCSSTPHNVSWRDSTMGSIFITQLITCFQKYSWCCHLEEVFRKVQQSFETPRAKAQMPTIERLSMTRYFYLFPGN
Protocol: (§1) The efficacy of an array of compounds as an inhibitor of the activity of Caspases 1 through 10 were assessed by using the respective Caspase Inhibitor Drug Screening Kits (Caspase-1 Catalog #: K151-100, Caspase-2 Catalog #: K152-100, Caspase-3 Catalog #: K153-100, Caspase-4 Catalog #: K154-100, Caspase-5 Catalog #: K155-100, Caspase-6 Catalog #: K156-100, Caspase-7 Catalog #: K157-100, Caspase-8 Catalog #: K158-100, Caspase-9 Catalog #: K159-100, Caspase-10 Catalog #: K160-100, BioVision) following the instructions of the manufacturer. […] Active caspases cleaved their respective synthetic substrates to release free AFC, which was then quantified by fluorometry.
(§2) Briefly, the compounds were first tested at 2 concentrations (10 uM and 100 uM final) to determine if there is a hit. […] Each condition was tested in duplicates. […] For some samples, a smaller range of concentrations was tested depending on the % Inhibition results at 10 uM and 100 uM. Results were summarized in Tables 2, 3, and 4 herein after. Table 2 represents the IC50 values (uM) of the test compounds as inhibitors of the activity of the various caspases.
(§3) (*) RFU (no inhibitor control)—RFU (compound at a specific concentration)
(§4) RFU (no inhibitor control)

Caspase-2 = biological target: T2, Caspase-2 (Homo sapiens, UniProt P42575); experiment: Caspase-2 inhibitor screening assay (BioVision kit, VDVAD-AFC); conditions: for inhibition at 10 µM: read-out: % Inhibition at 10 uM Casp2; for inhibition at 100 µM: read-out: % Inhibition at 100 uM Casp2; for IC50: read-out: IC50 Casp2
T2 construct: mixing the compounds with the respective active caspases; purchased BioVision K152-100
T2 sequence (P42575 170-325 limits assumed): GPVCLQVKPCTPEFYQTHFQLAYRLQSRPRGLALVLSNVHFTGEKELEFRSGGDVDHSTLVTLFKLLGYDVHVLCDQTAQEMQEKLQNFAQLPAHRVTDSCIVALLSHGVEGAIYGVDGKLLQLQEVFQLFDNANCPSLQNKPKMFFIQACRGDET
T2 sequence (P42575 334-452 limits assumed): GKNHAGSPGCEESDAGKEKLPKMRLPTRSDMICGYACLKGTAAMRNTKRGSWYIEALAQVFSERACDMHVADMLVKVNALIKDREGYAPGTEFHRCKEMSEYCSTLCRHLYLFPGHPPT
Protocol: as §1, §2, §3, §4

Caspase-9 = biological target: T3, Caspase-9 (Homo sapiens, UniProt P55211); experiment: Caspase-9 inhibitor screening assay (BioVision kit, LEHD-AFC); conditions: for inhibition at 10 µM: read-out: % Inhibition at 10 uM Casp9; for inhibition at 100 µM: read-out: % Inhibition at 100 uM Casp9
T3 construct: purchased BioVision K159-100
T3 sequence (P55211 1-315 limits assumed): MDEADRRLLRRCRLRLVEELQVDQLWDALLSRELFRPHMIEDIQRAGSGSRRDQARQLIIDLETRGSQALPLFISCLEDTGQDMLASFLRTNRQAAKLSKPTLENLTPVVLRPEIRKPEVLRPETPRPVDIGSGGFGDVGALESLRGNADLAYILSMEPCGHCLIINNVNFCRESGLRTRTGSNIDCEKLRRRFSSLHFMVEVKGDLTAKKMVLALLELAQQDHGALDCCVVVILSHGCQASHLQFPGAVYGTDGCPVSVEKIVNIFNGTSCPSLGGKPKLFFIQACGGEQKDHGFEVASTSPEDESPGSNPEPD
T3 sequence (P55211 331-416 limits assumed): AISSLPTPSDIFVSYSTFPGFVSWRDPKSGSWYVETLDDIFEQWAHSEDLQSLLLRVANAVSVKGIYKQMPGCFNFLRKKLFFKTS
Protocol: as §1, §2, §3, §4

Caspases 1 through 10 = experiment: Caspase-1 to Caspase-10 inhibitor screening, profile across the panel
Protocol: as §1, §2, §3, §4

[1] = read-out: potency (IC50) against caspase-4
[2] = read-out: potency (IC50) against caspase-9

| Structure (SMILES) | inhibition at 10 µM (Caspase-4) [%] | inhibition at 100 µM (Caspase-4) [%] | IC50 (Caspase-4; read-out: IC50 Casp4) [µM] | IC50 (Caspase-4; [1]) [µM] | inhibition at 10 µM (Caspase-2) [%] | inhibition at 100 µM (Caspase-2) [%] | IC50 (Caspase-2) [µM] | inhibition at 10 µM (Caspase-9) [%] | inhibition at 100 µM (Caspase-9) [%] | IC50 (Caspase-9; read-out: IC50 Casp9) [µM] | IC50 (Caspase-9; [2]) [µM] | inhibition profile across caspases, in words (Caspases 1 through 10) |
| --- | --- | --- | --- | --- | --- | --- | --- | --- | --- | --- | --- | --- |
| CC(C)(C)[C@H](NC(=O)c1ccc(N)c(Cl)c1)C(=O)N1CCCC1C(=O)N[C@H](/C=C/S(C)(=O)=O)CC(=O)O (stereo in doubt) [Compound 14, 4-amino-3-chlorobenzene carbonyl-t-Leu-Pro-Asp methyl vinyl sulfone] | 100 | 100 | 0.09 | 0.087 | 1 | 10 | > 100 | 77 | 99 | 2.3 | 2.31 | very strong inhibitory activity towards pro-inflammatory Caspases |
| CC(C)(C)[C@H](NC(=O)[C@H](CC(=O)O)NC(=O)OCc1ccccc1)C(=O)N1CCCC1C(=O)N[C@H](/C=C/S(C)(=O)=O)CC(=O)O (stereo in doubt) [Compound 26, Z-Asp-t-Leu-Pro-Asp-methyl vinyl sulfone] | 88 | 100 | 3.27 |  | 70 | 96 | 4.36 | 95 | 100 | 0.66 | 0.662 | high inhibitory activity towards the effector (executioner) Caspases: Caspase-3 and -7 |
| CC(C)(C)[C@H](NC(=O)c1ccc2ccccc2n1)C(=O)N1CCC[C@@H]1C(=O)N[C@H](/C=C/S(C)(=O)=O)CC(=O)O [Compound 6, 2-Quinoline carbonyl-t-Leu-pro-Asp methyl vinyl sulfone] | 99 | 100 | 1.55 | 1.55 | 2 | 10 | > 100 | 1 | 51 | ~100 |  | inhibits selectively caspase-1; also recorded: very strong inhibitory activity towards pro-inflammatory Caspases |
| CCC(C)[C@H](NC(=O)[C@H](CCC(=O)O)NC(=O)[C@@H](NC(=O)OCc1ccccc1)C(C)C)C(=O)N[C@H](/C=C/S(C)(=O)=O)CC(=O)O (stereo partly drawn) [Compound 38, Z-Val-Glu-Ile-Asp-methyl vinyl sulfone] | 100 | 100 | 0.375 |  | 2 | 4 |  | 82 | 97 | 0.79 |  |  |
| CC(C)[C@H](NC(=O)[C@H](CCC(=O)O)NC(=O)[C@H](Cc1c[nH]c2ccccc12)NC(=O)OCc1ccccc1)C(=O)N[C@H](/C=C/S(C)(=O)=O)CC(=O)O [Compound 40, Z-Trp-Glu-Val-Asp-methyl vinyl sulfone] | 100 | 100 | 0.18 |  | 1 | 10 | > 100 | 87 | 99 | 1.74 |  |  |
| CC(C)[C@H](NC(=O)[C@@H](N)Cc1ccc(O)cc1)C(=O)N[C@@H](C)C(=O)N[C@H](/C=C/S(C)(=O)=O)CC(=O)O [Compound 42, Tyr-Val-Ala-Asp methyl vinyl sulfone] | 28 | 100 | 17.1 |  | 0 | 0 | > 100 | 0 | 26 | > 100 |  |  |
